Source: patent EP2970215B1, “PYRROLIDINE DERIVATIVES, PHARMACEUTICAL COMPOSITIONS CONTAINING THEM, AND THEIR USE IN THERAPY” (AbbVie Deutschland GmbH & Co. KG, priority 2013, dated 2014)

Each compound was assayed against T1, human GlyT1c transporter (Homo sapiens, UniProt P48067) (assay: Radioligand binding assay using recombinant CHO cell membranes expressing human GlyT1). Details: radioligand binding to human GlyT1c transporter-expressing membranes.
T1 construct: expressed in transfected cells; host or cells: CHO cells (recombinant; line hGlyT1c_5_CHO is named for the uptake assay)
T1 sequence (P48067 1-706): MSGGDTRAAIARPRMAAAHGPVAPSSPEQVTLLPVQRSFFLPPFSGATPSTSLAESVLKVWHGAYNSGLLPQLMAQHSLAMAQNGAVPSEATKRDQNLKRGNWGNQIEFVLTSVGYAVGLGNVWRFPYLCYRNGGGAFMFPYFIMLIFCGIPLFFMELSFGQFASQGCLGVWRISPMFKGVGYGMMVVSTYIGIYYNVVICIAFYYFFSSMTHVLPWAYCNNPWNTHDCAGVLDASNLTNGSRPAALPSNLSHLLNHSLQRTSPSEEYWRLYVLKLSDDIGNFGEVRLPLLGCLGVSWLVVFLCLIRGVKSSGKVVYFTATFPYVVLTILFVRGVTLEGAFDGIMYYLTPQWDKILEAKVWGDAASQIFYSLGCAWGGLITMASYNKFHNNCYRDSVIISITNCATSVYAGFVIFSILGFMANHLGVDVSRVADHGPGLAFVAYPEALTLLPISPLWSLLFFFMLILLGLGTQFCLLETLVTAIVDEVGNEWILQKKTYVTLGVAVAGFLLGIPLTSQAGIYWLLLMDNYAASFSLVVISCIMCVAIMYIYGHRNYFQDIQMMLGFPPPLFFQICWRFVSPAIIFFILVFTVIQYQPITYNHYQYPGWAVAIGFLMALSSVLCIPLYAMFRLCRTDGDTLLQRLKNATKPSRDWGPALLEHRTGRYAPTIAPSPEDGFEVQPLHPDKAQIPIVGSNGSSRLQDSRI
Source text: 2. Radioligand binding assays using recombinant CHO cell membranes expressing human GlyT1: […]
In the case of Cn1cnc(S(=O)(=O)N2C[C@H](Nc3ncc(F)cn3)[C@@H](c3ccccc3)C2)c1 [Example 424, 5-fluoro-N-{(3R,4S)-1-[(1-methyl-1H-imidazol-4-yl)sulfonyl]-4-phenylpyrrolidin-3-yl}pyrimidin-2-amine], the Ki is reported as no more than 1000 nM. Cn1cnc(S(=O)(=O)N2C[C@H](NCCCC(F)(F)F)[C@@H](c3ccccc3)C2)c1 [Example 426, (3R,4S)-1-[(1-methyl-1H-imidazol-4-yl)sulfonyl]-4-phenyl-N-(4,4,4-trifluorobutyl)pyrrolidin-3-amine] was tested, and the Ki was no more than 1000 nM. Work on Cn1cnc(S(=O)(=O)N2C[C@H](NCCC3CCCC3)[C@@H](c3ccccc3)C2)c1 [Example 427, (3R,4S)-N-(2-cyclopentylethyl)-1-[(1-methyl-1H-imidazol-4-yl)sulfonyl]-4-phenylpyrrolidin-3-amine] yielded a Ki of no more than 100 nM. Compound Cn1cnc(S(=O)(=O)N2C[C@H](NCC3(C)CCOCC3)[C@@H](c3ccccc3)C2)c1 [Example 429, (3R,4S)-1-[(1-methyl-1H-imidazol-4-yl)sulfonyl]-N-[(4-methyltetrahydro-2H-pyran-4-yl)methyl]-4-phenylpyrrolidin-3-amine] has a Ki greater than 10000 nM. Cn1cnc(S(=O)(=O)N2C[C@H](NCc3scnc3-c3ccccc3)[C@@H](c3ccccc3)C2)c1 [Example 430, (3R,4S)-1-[(1-methyl-1H-imidazol-4-yl)sulfonyl]-4-phenyl-N-[(4-phenyl-1,3-thiazol-5-yl)methyl]pyrrolidin-3-amine] was tested, and the Ki was greater than 10000 nM. With Cc1cnc(CN[C@H]2CN(S(=O)(=O)c3cn(C)cn3)C[C@@H]2c2ccccc2)s1 [Example 431, (3R,4S)-1-[(1-methyl-1H-imidazol-4-yl)sulfonyl]-N-[(5-methyl-1,3-thiazol-2-yl)methyl]-4-phenylpyrrolidin-3-amine] the Ki was no more than 10000 nM. Cn1cnc(S(=O)(=O)N2C[C@H](NCc3c(Cl)cncc3Cl)[C@@H](c3ccccc3)C2)c1 [Example 432, (3R,4S)-N-[(3,5-dichloropyridin-4-yl)methyl]-1-[(1-methyl-1H-imidazol-4-yl)sulfonyl]-4-phenylpyrrolidin-3-amine] showed a Ki of no more than 10000 nM. Compound CCCCC(CC)CN[C@H]1CN(S(=O)(=O)c2cn(C)cn2)C[C@@H]1c1ccccc1 (stereo partly drawn) [Example 433, (3R,4S)-N-(2-ethylhexyl)-1-[(1-methyl-1H-imidazol-4-yl)sulfonyl]-4-phenylpyrrolidin-3-amine] has a Ki of no more than 100 nM. Cc1ncsc1CN[C@H]1CN(S(=O)(=O)c2cn(C)cn2)C[C@@H]1c1ccccc1 [Example 434, (3R,4S)-1-[(1-methyl-1H-imidazol-4-yl)sulfonyl]-N-[(4-methyl-1,3-thiazol-5-yl)methyl]-4-phenylpyrrolidin-3-amine] showed a Ki of no more than 10000 nM. For Cn1cnc(S(=O)(=O)N2C[C@H](NCc3sc(Cl)nc3Cl)[C@@H](c3ccccc3)C2)c1 [Example 435, (3R,4S)-N-[(2,4-dichloro-1,3-thiazol-5-yl)methyl]-1-[(1-methyl-1H-imidazol-4-yl)sulfonyl]-4-phenylpyrrolidin-3-amine], the Ki was no more than 100 nM. For Cn1cnc(S(=O)(=O)N2C[C@H](NCC(C)(C)C)[C@@H](c3ccccc3)C2)c1 [Example 436, (3R,4S)-N-(2,2-dimethylpropyl)-1-[(1-methyl-1H-imidazol-4-yl)sulfonyl]-4-phenylpyrrolidin-3-amine], the Ki was no more than 1000 nM. For Cc1ccc2sc(CN[C@H]3CN(S(=O)(=O)c4cn(C)cn4)C[C@@H]3c3ccccc3)cc2c1 [Example 437, (3R,4S)-N-[(5-methyl-1-benzothiophen-2-yl)methyl]-1-[(1-methyl-1H-imidazol-4-yl)sulfonyl]-4-phenylpyrrolidin-3-amine], the Ki was no more than 100 nM. In the case of CC(C)CN[C@H]1CN(S(=O)(=O)c2cn(C)cn2)C[C@@H]1c1ccccc1 [Example 439, (3R,4S)-1-[(1-methyl-1H-imidazol-4-yl)sulfonyl]-N-(2-methylpropyl)-4-phenylpyrrolidin-3-amine], the Ki is reported as no more than 1000 nM. With Cn1cnc(S(=O)(=O)N2C[C@H](NCc3sc4ccccc4c3Cl)[C@@H](c3ccccc3)C2)c1 [Example 440, (3R,4S)-N-[(3-chloro-1-benzothiophen-2-yl)methyl]-1-[(1-methyl-1H-imidazol-4-yl)sulfonyl]-4-phenylpyrrolidin-3-amine] the Ki was no more than 100 nM. For Cc1nc(C)c(CN[C@H]2CN(S(=O)(=O)c3cn(C)cn3)C[C@@H]2c2ccccc2)s1 [Example 441, (3R,4S)-N-[(2,4-dimethyl-1,3-thiazol-5-yl)methyl]-1-[(1-methyl-1H-imidazol-4-yl)sulfonyl]-4-phenylpyrrolidin-3-amine], the Ki was no more than 10000 nM. For Cn1cnc(S(=O)(=O)N2C[C@H](NCc3cc4cccnc4s3)[C@@H](c3ccccc3)C2)c1 [Example 442, (3R,4S)-1-[(1-methyl-1H-imidazol-4-yl)sulfonyl]-4-phenyl-N-(thieno[2,3-b]pyridin-2-ylmethyl)pyrrolidin-3-amine], the Ki was no more than 1000 nM. Work on Cc1oc2ccccc2c1CN[C@H]1CN(S(=O)(=O)c2cn(C)cn2)C[C@@H]1c1ccccc1 [Example 443, (3R,4S)-N-[(2-methyl-1-benzofuran-3-yl)methyl]-1-[(1-methyl-1H-imidazol-4-yl)sulfonyl]-4-phenylpyrrolidin-3-amine] yielded a Ki of no more than 1000 nM. With Cn1cnc(S(=O)(=O)N2C[C@H](NCc3cncc(-c4ccc(F)cc4)c3)[C@@H](c3ccccc3)C2)c1 [Example 445, (3R,4S)-N-{[5-(4-fluorophenyl)pyridin-3-yl]methyl}-1-[(1-methyl-1H-imidazol-4-yl)sulfonyl]-4-phenylpyrrolidin-3-amine] the Ki was no more than 1000 nM. With CCCC(C)CN[C@H]1CN(S(=O)(=O)c2cn(C)cn2)C[C@@H]1c1ccccc1 (stereo partly drawn) [Example 446, (3R,4S)-1-[(1-methyl-1H-imidazol-4-yl)sulfonyl]-N-(2-methylpentyl)-4-phenylpyrrolidin-3-amine] the Ki was no more than 100 nM. Cn1cnc(S(=O)(=O)N2C[C@H](NCC3CCOC3)[C@@H](c3ccccc3)C2)c1 (stereo partly drawn) [Example 447, (3R,4S)-1-[(1-methyl-1H-imidazol-4-yl)sulfonyl]-4-phenyl-N-(tetrahydrofuran-3-ylmethyl)pyrrolidin-3-amine] showed a Ki of no more than 10000 nM. CCC(CC)CN[C@H]1CN(S(=O)(=O)c2cn(C)cn2)C[C@@H]1c1ccccc1 [Example 449, (3R,4S)-N-(2-ethylbutyl)-1-[(1-methyl-1H-imidazol-4-yl)sulfonyl]-4-phenylpyrrolidin-3-amine] was tested, and the Ki was no more than 1000 nM. With CCC(C)(C)CN[C@H]1CN(S(=O)(=O)c2cn(C)cn2)C[C@@H]1c1ccccc1 [Example 450, (3R,4S)-N-(2,2-dimethylbutyl)-1-[(1-methyl-1H-imidazol-4-yl)sulfonyl]-4-phenylpyrrolidin-3-amine] the Ki was no more than 1000 nM. Cn1cnc(S(=O)(=O)N2C[C@H](NCc3nc4ccccc4s3)[C@@H](c3ccccc3)C2)c1 [Example 453, (3R,4S)-N-(1,3-benzothiazol-2-ylmethyl)-1-[(1-methyl-1H-imidazol-4-yl)sulfonyl]-4-phenylpyrrolidin-3-amine] was tested, and the Ki was no more than 1000 nM. With Cc1csc(CN[C@H]2CN(S(=O)(=O)c3cn(C)cn3)C[C@@H]2c2ccccc2)n1 [Example 454, (3R,4S)-1-[(1-methyl-1H-imidazol-4-yl)sulfonyl]-N-[(4-methyl-1,3-thiazol-2-yl)methyl]-4-phenylpyrrolidin-3-amine] the Ki was no more than 10000 nM. With Cc1cc(CN[C@H]2CN(S(=O)(=O)c3cn(C)cn3)C[C@@H]2c2ccccc2)sc1C [Example 455, (3R,4S)-N-[(4,5-dimethylthiophen-2-yl)methyl]-1-[(1-methyl-1H-imidazol-4-yl)sulfonyl]-4-phenylpyrrolidin-3-amine] the Ki was no more than 100 nM. Cn1cnc(S(=O)(=O)N2C[C@H](NCc3nc4c(s3)CCCC4)[C@@H](c3ccccc3)C2)c1 [Example 456, (3R,4S)-1-[(1-methyl-1H-imidazol-4-yl)sulfonyl]-4-phenyl-N-(4,5,6,7-tetrahydro-1,3-benzothiazol-2-ylmethyl)pyrrolidin-3-amine] showed a Ki of no more than 1000 nM. In the case of Cn1cnc(S(=O)(=O)N2C[C@H](NCc3cncs3)[C@@H](c3ccccc3)C2)c1 [Example 457, (3R,4S)-1-[(1-methyl-1H-imidazol-4-yl)sulfonyl]-4-phenyl-N-(1,3-thiazol-5-ylmethyl)pyrrolidin-3-amine], the Ki is reported as no more than 10000 nM. For CC1=C(CCN[C@H]2CN(S(=O)(=O)c3cn(C)cn3)C[C@@H]2c2ccccc2)C(C)(C)CCC1 [Example 458, (3R,4S)-1-[(1-methyl-1H-imidazol-4-yl)sulfonyl]-4-phenyl-N-[2-(2,6,6-trimethylcyclohex-1-en-1-yl)ethyl]pyrrolidin-3-amine], the Ki was no more than 10000 nM. For Cc1ccc(CCN[C@H]2CN(S(=O)(=O)c3cn(C)cn3)C[C@@H]2c2ccccc2)cc1 [Example 461, (3R,4S)-1-[(1-methyl-1H-imidazol-4-yl)sulfonyl]-N-[2-(4-methylphenyl)ethyl]-4-phenylpyrrolidin-3-amine], the Ki was no more than 1000 nM. CC(C)CCN[C@H]1CN(S(=O)(=O)c2cn(C)cn2)C[C@@H]1c1ccccc1 [Example 463, (3R,4S)-N-(3-methylbutyl)-1-[(1-methyl-1H-imidazol-4-yl)sulfonyl]-4-phenylpyrrolidin-3-amine] showed a Ki of no more than 1000 nM.
